{"source": "patent US7749491B2", "about": "“Compounds and methods to enhance rAAV transduction” (priority 2003, dated 2010)", "key": {"HeLa cells": {"tested_on": "HeLa cells", "assay": "AAV2 FLAG-Luc transduction of HeLa cells (luciferase screen of agents)", "format": "cell-based", "conditions": "for increase of transduction efficiency: MOI of 100, 2 hours infection, at the doses tested; for relative potency of anthracyclines: 0.6, 3 and 6 μg/mL", "from_the_text": "A. To screen for agents that enhance rAAV transduction, any number of cells can be used. A range of concentrations of the agent to be tested can be determined based on, for instance desirable profiles of the agent, desirable toxicity profiles of the agent and/or concentration of the agents employed in vivo. The usefulness of the cell type chosen for the screen can be confirmed by testing compounds, e.g., proteosome inhibitors described in Example 1 such as LLnL and ZLL which are known to increase rAAV transduction. For example, a AAV2 FLAG-Luc vector was employed to transduce HeLa, ferret fibroblasts, IB3 and Huh (liver) cells in the presence or absence of the proteosome inhibitor MG132. MG132 was confirmed to enhance AAV transduction in all cell types tested: HeLa cell transduction was enhanced about 500-fold at 80 μM, and 200-fold at 40 μM, MG132; ferret fibroblast cell transduction was enhanced about 200-fold at 20 μM, and 17-fold at 4 μM, MG132; IB3-1 cell transduction was enhanced about 30 to 70-fold at 20 to 80 μM MG132; and Huh-7 cell transduction was enhanced about 15-fold at 20 to 80 μM MG132. There was no difference in rAAV transduction efficiency in HeLa cells when either DMSO or ETOH was used as a vehicle for MG132. B. HeLa cells were selected to screen for additional agents that enhance rAAV transduction, although any cell strain or line; or primary cells, may be employed. […] The range of concentrations of the agents to be tested were selected based on solubility profiles, toxicity profiles and/or concentrations previously employed in vivo.\nHeLa cells were infected for 2 hours with an MOI of 100 rAAV in the presence of agents, e.g., ritonavir (Norvir) (1, 10 and 100 μM), cyclosporin A (2.5, 25 and 250 μg/ml), epoxomicin (1, 10 and 50 μM), alcacinomycin A (5, 50 or 500 μM), chymostatin (1, 10 and 100 μM), bestatin (1, 10 and 100 μM), doxorubicin (adriamycin) (0.1, 1 and 10 μM), camptothecin (camptosar) (1, 10 and 100 μM), eicosapentanoic acid (1, 10 and 100 μM), tannic acid (2, 20, 200 and 2000 μM), simvastatin, prodrug (2, 20 and 200 μM), cisplatin (0.2, 2 and 20 μg/mL), and chloroquine (4, 40 and 400 μM). Forty-eight hours after infection, cells were harvested for analysis. rAAV transduction was measured by removing the media from the cell cultures, adding 100 μL reporter lysis buffer (RLB) and freezing. The supernatant was thawed and transferred to microfuge tubes, freeze thawed an additional 2 times, clarified by centrifugation for 10 minutes and then analyzed for reporter gene expression on the luminometer. Protein was determined by Bradford analysis and results were expressed as relative light units per mg protein (RLU/mg).\nBased on results with doxorubicin, a small number of FDA approved anthracyclines were tested for their relative in vitro and in vivo activities on AAV transduction. HeLa cells were infected with 100 ppc AAV2FLAG-Luc for 2 hours in the presence of different anthracyclines, e.g., doxorubicin, daunarubicin (Cerubidine), epirubicin (Ellence™), and idarubicin (Idamycin®), and cells harvested 48 hours later. The anthracyclines were pharmaceutical grade, and prepared according to the manufacturer's instructions. Prior to use, the agents were diluted in sterile water to an equal mass, e.g., 0.6 μg/mL, 3 μg/mL and 6 μg/mL. For example, 3 μg/mL idamycin increased luciferase expression by over 5000-fold while doxorubin increased luciferase expression by 58-fold. Generally, the potency was as follows: idarubicin>daunarubicin>epirubicin>doxorubicin."}, "[1]": {"tested_on": "polarized human bronchial epithelial cells", "format": "cell-based", "conditions": "for rAAV transduction from the apical surface: apical infection, data not shown; for rAAV transduction from the basolateral surface with ubiquitin ligase inhibitors: both inhibitors combined, 2 mM pretreatment 60 minutes, then 0.2 mM", "procedure": "Primary culture of human bronchial epithelia and reagents utilized. Primary human airway epithelial cells were collected by enzymatic digestion of bronchial samples from lung transplants, as previously described (Kondo et al., 1991; Zabner et al., 1996). Isolated primary airway cells were seeded at a density of 5×10^5 cells/cm^2 onto collagen-coated Millicell-HA culture inserts (Millipore Corp., Bedford, Mass.). Primary cultures were grown at the air-liquid interface for more than 2 weeks, by which time differentiation into a mucociliary epithelium occurs. The culture medium, used to feed only the basolateral side of the cells, contained 49% DMEM, 49% Ham's F12 and 2% Ultraser G (BioSepra, Cedex, France). Dimethyl Sulphoxide (DMSO), camptothecin (Camp), etoposide (Etop), aphidicolin (Aphi), hydroxyurea (HU) and genistein (Geni) were purchased from Sigma (St. Louis, Mo.). Tripeptidyl aldehyde proteasome inhibitors N-Acetyl-L-Leucyl-L-Leucyl-Norleucine (LLnL) and benzyloxycarbonyl-L-leucyl-L-leucyl-L-leucinal (Z-LLL) were purchased from Calbiochem-Novabiochem Corporation (La Jolla, Calif.). Ubiquitin ligase (E3) inhibitors were obtained from Bachem Bioscience Inc. (King of Prussia, Pa.). Anti-AAV capsid monoclonal antibody (Anti-VP1, 2 and 3) was purchased from American Research Products (Belmont, Mass.) and anti-ubiquitin antibody was purchased from Santa Cruz Biotechnology Inc. (Santa Cruz, Calif.).\nTransduction of polarized airway epithelial cells and primary human fibroblasts. rAAV infection of fully differentiated bronchial cells was performed as described in Duan et al. (1998). For infections from the apical surface of the airway cells, 5 μl rAAV was mixed with 50 μl of culture media and applied directly onto the apical compartment of Millicell inserts (MOI=10,000 particles/cell). During apical infection, the basolateral side of the Millicell was continuously bathed in culture media. Gene transfer to the basal side was performed by inverting Millicell inserts and applying viral vector to the bottom of the supporting filter membrane in a 50 μl volume for 2 hours. Subsequently, Millicell inserts were returned to the upright position, in the continued presence of the original viral inoculum plus an additional 450 μl of media. For both apical and basolateral infections, rAAV containing media was removed after 24 hours and replaced with either fresh culture media (for the basal side) or exposed to air (for the apical side). To test the effect of different agents on the efficiency of AAV transduction in polarized airway cells, 1 μl of each solution was mixed with AAV prior to infection of airway epithelia. Agents were usually presented during the 24 hours AAV infection period unless indicated otherwise. Most of the agents were dissolved in DMSO except for hydroxyurea (dissolved in phosphate buffered saline), H-Leu-Ala-OH (dissolved in 0.9% glacial acetic acid) and H-His-Ala-OH (dissolved in 50% methanol). The working concentrations of the agents were as follows: 0.1 μM camptothecin, 10 μM etoposide, 5 μg/ml aphidicolin, 40 mM hydroxyurea, 50 μM genistein, 40 μM LLnL and 4 μM Z-LLL. When the ubiquitin ligase (E3) inhibitors (H-Leu-Ala-OH and H-His-Ala-OH) were used, airway cells were pretreated with a combination of both inhibitors at a final concentration of 2 mM for 60 minutes prior to infection, followed by the continued presence of inhibitor (0.2 mM) during the entire 24 hours infection period from the basolateral surface. Studies involving EGTA treatment were performed by transiently treating the apical membrane of polarized airway epithelia with 3 mM EGTA in water for 10 minutes (Duan et al., 1998). Following hypotonic EGTA treatment, cultures were washed twice with culture medium and infected with rAAV in the presence or absence of 40 μM LLnL. Human primary fibroblast cells (P4) were maintained in 10% fetal bovine serum (FBS), 1% penicillin and streptomycin, and 89% DMEM. […]"}}, "data": [{"molecule": "CC[C@H](C)[C@H](NC(=O)[C@H]([C@@H](C)CC)N(C)C(C)=O)C(=O)N[C@H](C(=O)N[C@@H](CC(C)C)C(=O)[C@@]1(C)CO1)[C@@H](C)O", "note": "[epoxomicin]", "values": [{"measurement": "increase of transduction efficiency", "setting": "HeLa cells; harvested 48 hours", "value": "≤ 120", "unit": "fold"}]}, {"molecule": "CC[C@@]1(O)C(=O)OCc2c1cc1n(c2=O)Cc2cc3ccccc3nc2-1", "note": "[camptothecin]", "values": [{"measurement": "rAAV transduction from the apical surface", "setting": "[1]", "value": "none of these agents facilitated rAAV transduction from the apical surface"}, {"measurement": "increase of transduction efficiency", "setting": "HeLa cells; harvested 48 hours", "value": 15, "unit": "fold"}]}, {"molecule": "CCC(C)(C)C(=O)O[C@H]1C[C@@H](C)C=C2C=C[C@H](C)[C@H](CC[C@@H]3C[C@@H](O)CC(=O)O3)[C@H]21", "note": "[simvastatin]", "values": [{"measurement": "increase of transduction efficiency", "setting": "HeLa cells; harvested 48 hours", "value": 4, "unit": "fold"}]}, {"molecule": "N.N.[Cl][Pt][Cl]", "note": "[cisplatin]", "values": [{"measurement": "increase of transduction efficiency", "setting": "HeLa cells; harvested 48 hours", "value": 16, "unit": "fold"}]}, {"molecule": "H-Leu-Ala-OH", "values": [{"measurement": "rAAV transduction from the basolateral surface with ubiquitin ligase inhibitors", "setting": "[1]", "value": "enhanced rAAV transduction from the basolateral surface"}]}, {"molecule": "CC[C@H](C)C(=O)O[C@H]1C[C@@H](C)C=C2C=C[C@H](C)[C@H](CC[C@@H]3C[C@@H](O)CC(=O)O3)[C@H]21", "note": "[lovastatin]", "values": [{"measurement": "outcome in cell line screening", "setting": "HeLa cells; HeLa screen", "value": "negative results"}]}, {"molecule": "O=C(OC[C@H]1O[C@@H](OC(=O)c2cc(O)c(O)c(OC(=O)c3cc(O)c(O)c(O)c3)c2)[C@H](OC(=O)c2cc(O)c(O)c(OC(=O)c3cc(O)c(O)c(O)c3)c2)[C@@H](OC(=O)c2cc(O)c(O)c(OC(=O)c3cc(O)c(O)c(O)c3)c2)[C@@H]1OC(=O)c1cc(O)c(O)c(OC(=O)c2cc(O)c(O)c(O)c2)c1)c1cc(O)c(O)c(OC(=O)c2cc(O)c(O)c(O)c2)c1", "note": "[tannic acid]", "values": [{"measurement": "increase of transduction efficiency", "setting": "HeLa cells; harvested 48 hours", "value": 17, "unit": "fold"}]}, {"molecule": "COc1cccc2c1C(=O)c1c(O)c3c(c(O)c1C2=O)C[C@@](O)(C(C)=O)C[C@@H]3O[C@H]1C[C@H](N)[C@H](O)[C@H](C)O1", "note": "[daunarubicin]", "values": [{"measurement": "relative potency of anthracyclines", "setting": "HeLa cells", "value": "idarubicin>daunarubicin>epirubicin>doxorubicin"}]}, {"molecule": "H-His-Ala-OH", "values": [{"measurement": "rAAV transduction from the basolateral surface with ubiquitin ligase inhibitors", "setting": "[1]", "value": "enhanced rAAV transduction from the basolateral surface"}]}, {"molecule": "CC(=O)[C@]1(O)Cc2c(O)c3c(c(O)c2[C@@H](O[C@H]2C[C@H](N)[C@H](O)[C@H](C)O2)C1)C(=O)c1ccccc1C3=O", "note": "[idamycin, idarubicin]", "values": [{"measurement": "increase of luciferase expression", "setting": "HeLa cells; 3 μg/mL, 100 ppc AAV2FLAG-Luc 2 hours, harvested 48 hours", "value": "over 5000 fold"}, {"measurement": "relative potency of anthracyclines", "setting": "HeLa cells", "value": "idarubicin>daunarubicin>epirubicin>doxorubicin"}]}, {"molecule": "COc1cc([C@@H]2c3cc4c(cc3[C@@H](O[C@@H]3O[C@@H]5CO[C@@H](C)O[C@H]5[C@H](O)[C@H]3O)[C@H]3COC(=O)[C@H]23)OCO4)cc(OC)c1O", "note": "[etoposide]", "values": [{"measurement": "rAAV transduction from the apical surface", "setting": "[1]", "value": "none of these agents facilitated rAAV transduction from the apical surface"}]}, {"molecule": "O=c1c(-c2ccc(O)cc2)coc2cc(O)cc(O)c12", "note": "[genistein]", "values": [{"measurement": "rAAV transduction from the apical surface", "setting": "[1]", "value": "none of these agents facilitated rAAV transduction from the apical surface"}]}]}
